# Measurements from PMC5641865, “A screen for kinase inhibitors identifies antimicrobial imidazopyridine aminofurazans as specific inhibitors of the Listeria monocytogenes PASTA kinase PrkA” (The Journal of Biological Chemistry, 2017).
# Read-outs that look alike come from different tables or passages of the source.
# How the values were obtained:
# Type in all cases: biochemical
# [1] = biological target: T1, PrkA kinase domain; PrkA(1-338) (Listeria monocytogenes, UniProt A0A0H3GI69); assay: Kinase-Glo ATP depletion assay
# T1 construct: gene LMRG_00967; cytosolic kinase domain, residues 1-338, pGEX-2T GST fusion from E. coli Rosetta BL21, GST cut off with thrombin
# T1 sequence (A0A0H3GI69 entry or part of it): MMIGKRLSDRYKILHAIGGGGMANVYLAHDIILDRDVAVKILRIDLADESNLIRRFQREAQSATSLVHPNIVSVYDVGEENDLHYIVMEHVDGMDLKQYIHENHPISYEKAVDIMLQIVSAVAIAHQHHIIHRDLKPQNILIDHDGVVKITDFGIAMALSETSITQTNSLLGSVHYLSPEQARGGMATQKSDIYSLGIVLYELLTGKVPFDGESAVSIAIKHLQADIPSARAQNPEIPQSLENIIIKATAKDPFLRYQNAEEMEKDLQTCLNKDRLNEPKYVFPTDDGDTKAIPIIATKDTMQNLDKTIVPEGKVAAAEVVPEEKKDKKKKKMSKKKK
# From the text: Kinase-Glo ATP depletion assay on PrkA kinase domain; PrkA(1-338)
# Stk1 kinase domain [2] = biological target: T2, Stk1 kinase domain (Staphylococcus aureus, UniProt A0A0H2XGG5); assay: Kinase-Glo ATP depletion assay
# T2 construct: gene pknB; cytosolic kinase domain, residues 1-348, pGEX-2T GST fusion from E. coli Rosetta BL21, GST cut off with thrombin; Mn2+ in place of Mg2+
# T2 sequence (A0A0H2XGG5 entry or part of it): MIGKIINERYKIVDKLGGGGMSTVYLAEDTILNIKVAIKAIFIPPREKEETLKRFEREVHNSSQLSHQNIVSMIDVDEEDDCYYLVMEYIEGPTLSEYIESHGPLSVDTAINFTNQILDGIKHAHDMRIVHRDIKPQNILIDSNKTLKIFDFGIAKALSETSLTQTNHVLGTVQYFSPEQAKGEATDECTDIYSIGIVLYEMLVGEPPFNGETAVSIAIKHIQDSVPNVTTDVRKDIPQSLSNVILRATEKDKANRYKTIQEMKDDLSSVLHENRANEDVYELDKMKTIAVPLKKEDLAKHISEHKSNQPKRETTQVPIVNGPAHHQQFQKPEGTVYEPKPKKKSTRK
# Stk1 kinase domain [3] = biological target: T2, Stk1 kinase domain; assay: kinase inhibition assay (supplement)
# [4] = read-out: Relative IC50 (95% CI)
Compound,"IC50 [1, 4] [nM]",other results
CCn1c(-c2nonc2N)nc2c(C#CC(C)(C)O)ncc(OCC3CCNCC3)c21 [GSK554170A],450,
CCn1c(-c2nonc2N)nc2c(C#CC(C)(C)O)ncc(OC[C@@H]3CCCN3)c21 [GSK614526A],,IC50 [1]: 420 nM
CCn1c(-c2nonc2N)nc2c(C#CC(C)(C)O)ncc(OC[C@H]3CCCNC3)c21 [GSK690693],840,IC50 (Stk1 kinase domain [2]): > 40000 nM
CCn1c(-c2nonc2N)nc2c(C#CC(C)(C)O)nc(OCCN)cc21 [GSK902056A],410,
O=C1Nc2ccccc2C1=C1Nc2ccccc2C1=NO [indirubin-3′-monoxime],,kinase inhibition assay (supplement) (Stk1 kinase domain [3]): Stk1 can be biochemically inhibited by the kinase inhibitor indirubin-3′-monoxime
